The record followed here is paper PMC8587750, “Structural Optimization and Biological Activity of Pyrazole Derivatives: Virtual Computational Analysis, Recovery Assay and 3D Culture Model as Potential Predictive Tools of Effectiveness against Trypanosoma cruzi” (Molecules, 2021).

As a reminder, the melting point is the temperature, or range, at which the solid turns liquid.

In data set [1] the test system is intracellular amastigotes of T. cruzi. The experiment in a line: Activity against intracellular amastigotes in infected Vero cells (Dm28c-Luc, 72 h). To be noted: Trypanosoma cruzi, Vero, negative log of the IC50 value in molar; read-out: Intracellular Amastigotes pIC50 (converted). The class given is cell-based, Trypanosoma cruzi. From the text: T. cruzi Dm28c clone genetically modified to express luciferase, kindly provided by Dr. Cristina Henriques from Oswaldo Cruz Institute–Fiocruz, was used in the drug assays. Trypomastigotes were harvested from T. cruzi-infected Vero cultures supernatants at 4th days post-infection (dpi) and used in the phenotypic screening assay. For intracellular amastigotes assays, Vero cells (2D and 3D cultures) were infected at a ratio of 10:1 parasites/host cells.
The effect of the pyrazole derivatives against intracellular amastigotes was also evaluated after 72 h treatment (37 °C) with compound concentrations ranging from 0.04–100 µM [13]. Parasite viability, measured by luminescent signal, was determined after luciferin (300 µg/mL) addition. IC50 and IC90 values were calculated by linear regression. Selectivity index (SI) was calculated as the ratio of the CC50 to IC50 values. The non-toxic concentration of DMSO (less than 1% v/v) was used in all assays. A minimum of three independent assays was carried out in duplicate.

Take `NC(=O)c1cnn(-c2ccc(Cl)c(Cl)c2)c1` [Compound 1e, 1-(3,4-dichlorophenyl)-1H-pyrazole-4-carboxamide]: the melting point lay in the range of 190 to 192 °C. For the same molecule, the IC50 in data set [1] is over 50.1 µM.
Consider `NC(=O)c1cnn(-c2ccc(Cl)cc2Cl)c1N` [Compound 2c, 5-amino-1-(2,4-dichlorophenyl)-1H-pyrazole-4-carboxamide], for which the melting point is 212 to 214 °C. Also, in data set [1], the IC50 is over 70.8 µM.
In the same order, the values of `NC(=O)c1cnn(-c2cccc(Br)c2)c1` [Compound 1j, 1-(3-bromophenyl)-1H-pyrazole-4-carboxamide] are 212 to 214 °C and over 50.1 µM.
With `NC(=O)c1cnn(-c2cc(Cl)cc(Cl)c2)c1` [Compound 1d, 1-(3,5-dichlorophenyl)-1H-pyrazole-4-carboxamide], the melting point lay within 240 to 242 °C. Further, the IC50 in data set [1] is over 50.1 µM.
In turn, `NC(=O)c1cnn(-c2ccc(Br)cc2)c1` [Compound 1i, 1-(4-bromophenyl)-1H-pyrazole-4-carboxamide] registered a melting point of 242 to 244 °C. For the same molecule, in data set [1], the IC50 was over 50.1 µM.
`NC(=O)c1cnn(-c2cccc(Cl)c2)c1N` [Compound 2b, 5-amino-1-(3-chlorophenyl)-1H-pyrazole-4-carboxamide] showed a melting point of 168 to 170 °C. For the same molecule, the IC50 in data set [1] is over 70.8 µM.
Regarding `COc1ccc(-n2ncc(C(N)=O)c2N)cc1` [Compound 2k, 5-amino-1-(4-methoxyphenyl)-1H-pyrazole-4-carboxamide], the melting point was in the range of 214 to 218 °C. Further, in data set [1], the IC50 was over 70.8 µM.
`NC(=O)c1cnn(-c2cccc(Br)c2)c1N` [Compound 2j, 5-amino-1-(3-bromophenyl)-1H-pyrazole-4-carboxamide] yielded a melting point of 138 to 142 °C. In data set [1], the IC50 was over 70.8 µM.
The molecule `NC(=O)c1cnn(-c2ccc(F)cc2)c1N` [Compound 2g, 5-amino-1-(4-fluorophenyl)-1H-pyrazole-4-carboxamide] had a melting point of 232 to 234 °C. Also, in data set [1], the IC50 was over 70.8 µM.
In the same order, the values of `NC(=O)c1cnn(-c2ccc(Cl)cc2Cl)c1` [Compound 1c, 1-(2,4-dichlorophenyl)-1H-pyrazole-4-carboxamide] are 184 to 186 °C and over 50.1 µM.
As for `COc1ccc(-n2cc(C(N)=O)cn2)cc1` [Compound 1k, 1-(4-methoxyphenyl)-1H-pyrazole-4-carboxamide], the melting point was in the range of 220 to 222 °C. Moreover, the IC50 in data set [1] was over 50.1 µM.
As to `NC(=O)c1cnn(-c2ccc(F)cc2)c1` [Compound 1g, 1-(4-fluorophenyl)-1H-pyrazole-4-carboxamide], the melting point lay within 244 to 246 °C. The IC50 in data set [1] was over 50.1 µM.
On to `NC(=O)c1cnn(-c2ccc(Cl)cc2)c1N` [Compound 2f, 5-amino-1-(4-chlorophenyl)-1H-pyrazole-4-carboxamide], for which the melting point lay within 196 to 200 °C. The IC50 in data set [1] is over 70.8 µM.
In turn, `NC(=O)c1cnn(-c2cccc(F)c2)c1` [Compound 1h, 1-(3-fluorophenyl)-1H-pyrazole-4-carboxamide] returned a melting point of 206 to 208 °C. Moreover, the IC50 in data set [1] is over 50.1 µM.
As to `NC(=O)c1cnn(-c2cccc(Cl)c2Cl)c1N` [Compound 2l, 5-amino-1-(2,3-dichlorophenyl)-1H-pyrazole-4-carboxamide], the melting point was in the range of 160 to 164 °C. The IC50 in data set [1] was over 70.8 µM.
`NC(=O)c1cnn(-c2cccc(F)c2)c1N` [Compound 2h, 5-amino-1-(3-fluorophenyl)-1H-pyrazole-4-carboxamide] showed a melting point of 178 to 182 °C. The IC50 in data set [1] was over 70.8 µM.
In the same order, the values of `NC(=O)c1cnn(-c2ccc(Br)cc2)c1N` [Compound 2i, 5-amino-1-(4-bromophenyl)-1H-pyrazole-4-carboxamide] are 138 to 142 °C and over 70.8 µM.
